Experimental data: patent US9492444B2, “Extruded extended release abuse deterrent pill” (Pharmaceutical Manufacturing Research Services, Inc., priority 2013, dated 2016)

Assay: General solubility of exemplary components
Assay type: physicochemical
Conditions: 200 proof ethanol, filtered through 0.22 micrometer PTFE filter
Text: The following table lists the relative solubility of exemplary components of a formulation. A number of different dyes are listed along with their solubility information taken from the various literature sources and tested experimentally (200 proof ethanol and filtered through a 0.22 micrometer PTFE filter).

Row | SMILES | Alcohol Solubility (tested)
1 | CCN(Cc1cccc(S(=O)(=O)[O-])c1)c1ccc(C(=C2C=CC(=[N+](CC)Cc3cccc(S(=O)(=O)[O-])c3)C=C2)c2ccccc2S(=O)(=O)[O-])cc1.[Na+].[Na+] [Blue #1] | Yes
2 | O=C1/C(=C2\Nc3ccc(S(=O)(=O)[O-])cc3C2=O)Nc2ccc(S(=O)(=O)[O-])cc21.[Na+].[Na+] [Blue #2] | Yes
3 | COc1cc(S(=O)(=O)[O-])c(C)cc1N=Nc1c(O)ccc2cc(S(=O)(=O)[O-])ccc12.[Na+].[Na+] [Red #40] | Yes
4 | O=C([O-])C1=NN(c2ccc(S(=O)(=O)[O-])cc2)C(=O)C1N=Nc1ccc(S(=O)(=O)[O-])cc1.[Na+].[Na+].[Na+] (stereo not drawn) [Yellow #5] | Yes

Assay: not given
Conditions: cited from earlier work

Row | SMILES | Alcohol Solubility (Literature) | Water Solubility
5 | CCN(Cc1cccc(S(=O)(=O)[O-])c1)c1ccc(C(=C2C=CC(=[N+](CC)Cc3cccc(S(=O)(=O)[O-])c3)C=C2)c2ccccc2S(=O)(=O)[O-])cc1.[Na+].[Na+] [Blue #1] | Yes | Yes
6 | O=C1/C(=C2\Nc3ccc(S(=O)(=O)[O-])cc3C2=O)Nc2ccc(S(=O)(=O)[O-])cc21.[Na+].[Na+] [Blue #2] | Yes | Yes
7 | COc1cc(S(=O)(=O)[O-])c(C)cc1N=Nc1c(O)ccc2cc(S(=O)(=O)[O-])ccc12.[Na+].[Na+] [Red #40] | Yes | Yes
8 | O=C([O-])C1=NN(c2ccc(S(=O)(=O)[O-])cc2)C(=O)C1N=Nc1ccc(S(=O)(=O)[O-])cc1.[Na+].[Na+].[Na+] (stereo not drawn) [Yellow #5] | Yes | Yes
